Measured values reported in ChEMBL document CHEMBL4665624, “Synthesis of 5-(4-(1H-phenanthro[9,10-d]imidazol-2-yl)benzylidene)thiazolidine-2,4-dione as promising DNA and serum albumin-binding agents and evaluation of antitumor activity” (Eur J Med Chem, 2019).

What follows are compounds tested on NCI-H522 (assay: Antitumor activity against human NCI-H522 cells assessed as cell growth inhibition at 10 uM incubated for 48 hrs by sulforhodamine B assay). Settings: read-out: GI.
Format: functional

Structure (SMILES) | inhibition of growth at 10 µM
Oc1ccccc1-c1nc2c3ccccc3c3ccccc3c2o1 | < 10%

Each compound was assayed on MDA-MB-231 (assay: Antitumor activity against human MDA-MB-231/ATCC cells assessed as cell growth inhibition at 10 uM incubated for 48 hrs by sulforhodamine B assay). Settings: read-out: GI.
Format: functional

Structure (SMILES) | inhibition of growth at 10 µM
Oc1ccccc1-c1nc2c3ccccc3c3ccccc3c2o1 | 18.3%

The compounds below were run on PC-3 (assay: Antitumor activity against human PC-3 cells assessed as cell growth inhibition at 10 uM incubated for 48 hrs by sulforhodamine B assay). Settings: read-out: GI.
Format: functional

Structure (SMILES) | inhibition of growth at 10 µM
Oc1ccccc1-c1nc2c3ccccc3c3ccccc3c2o1 | 22.2%

These compounds were tested on SW-620 (assay: Antitumor activity against human SW620 cells assessed as cell growth inhibition at 10 uM incubated for 48 hrs by sulforhodamine B assay). Settings: SW-620, 48 h, read-out: GI.

Structure (SMILES) | inhibition of growth at 10 µM
Oc1ccccc1-c1nc2c3ccccc3c3ccccc3c2o1 | 31.6%

What follows are compounds tested on MOLT-4 (assay: Antitumor activity against human MOLT4 cells assessed as cell growth inhibition at 10 uM incubated for 48 hrs by sulforhodamine B assay). Settings: read-out: GI.
Format: functional

Structure (SMILES) | inhibition of growth at 10 µM
Oc1ccccc1-c1nc2c3ccccc3c3ccccc3c2o1 | < 10%

Each compound was assayed on BT-549 (assay: Antitumor activity against human BT-549 cells assessed as cell growth inhibition at 10 uM incubated for 48 hrs by sulforhodamine B assay). Settings: read-out: GI.
Format: functional

Structure (SMILES) | inhibition of growth at 10 µM
Oc1ccccc1-c1nc2c3ccccc3c3ccccc3c2o1 | < 10%

Each compound was assayed on HL-60(TB) (assay: Antitumor activity against human HL-60(TB) cells assessed as cell growth inhibition at 10 uM incubated for 48 hrs by sulforhodamine B assay). Settings: read-out: GI.
Format: functional

Structure (SMILES) | inhibition of growth at 10 µM
Oc1ccccc1-c1nc2c3ccccc3c3ccccc3c2o1 | 12%

Each compound was assayed on MDA-MB-435 (assay: Antitumor activity against human MDA-MB-435 cells assessed as cell growth inhibition at 10 uM incubated for 48 hrs by sulforhodamine B assay). Settings: read-out: GI.
Format: functional

Structure (SMILES) | inhibition of growth at 10 µM
Oc1ccccc1-c1nc2c3ccccc3c3ccccc3c2o1 | < 10%

The compounds below were run on NCI-H460 (assay: Antitumor activity against human NCI-H460 assessed as cell growth inhibition at 10 uM incubated for 48 hrs by sulforhodamine B assay). Settings: read-out: GI.
Format: functional

Structure (SMILES) | inhibition of growth at 10 µM
Oc1ccccc1-c1nc2c3ccccc3c3ccccc3c2o1 | 30.4%

The compounds below were run on SR (assay: Antitumor activity against human SR cells assessed as cell growth inhibition at 10 uM incubated for 48 hrs by sulforhodamine B assay). Settings: read-out: GI.
Format: functional

Structure (SMILES) | inhibition of growth at 10 µM
Oc1ccccc1-c1nc2c3ccccc3c3ccccc3c2o1 | 26.3%

These compounds were tested on A498 (assay: Antitumor activity against human A498 cells assessed as cell growth inhibition at 10 uM incubated for 48 hrs by sulforhodamine B assay). Settings: read-out: GI.
Format: functional

Structure (SMILES) | inhibition of growth at 10 µM
Oc1ccccc1-c1nc2c3ccccc3c3ccccc3c2o1 | < 10%

What follows are compounds tested on LOX IMVI (assay: Antitumor activity against human LOX IMVI cells assessed as cell growth inhibition at 10 uM incubated for 48 hrs by sulforhodamine B assay). Settings: read-out: GI.
Format: functional

Structure (SMILES) | inhibition of growth at 10 µM
Oc1ccccc1-c1nc2c3ccccc3c3ccccc3c2o1 | < 10%

What follows are compounds tested on SK-OV-3 (assay: Antitumor activity against human SK-OV-3 cells assessed as cell growth inhibition at 10 uM incubated for 48 hrs by sulforhodamine B assay). Settings: read-out: GI.
Format: functional

Structure (SMILES) | inhibition of growth at 10 µM
Oc1ccccc1-c1nc2c3ccccc3c3ccccc3c2o1 | < 10%

Each compound was assayed on UO-31 (assay: Antitumor activity against human UO-31 cells assessed as cell growth inhibition at 10 uM incubated for 48 hrs by sulforhodamine B assay). Settings: read-out: GI.
Format: functional

Structure (SMILES) | inhibition of growth at 10 µM
Oc1ccccc1-c1nc2c3ccccc3c3ccccc3c2o1 | 39%

These compounds were tested on Hs-578T (assay: Antitumor activity against human HS 578T cells assessed as cell growth inhibition at 10 uM incubated for 48 hrs by sulforhodamine B assay). Settings: read-out: GI.
Format: functional

Structure (SMILES) | inhibition of growth at 10 µM
Oc1ccccc1-c1nc2c3ccccc3c3ccccc3c2o1 | 10.5%

Each compound was assayed on SN12C (assay: Antitumor activity against human SN12C cells assessed as cell growth inhibition at 10 uM incubated for 48 hrs by sulforhodamine B assay). Settings: read-out: GI.
Format: functional

Structure (SMILES) | inhibition of growth at 10 µM
Oc1ccccc1-c1nc2c3ccccc3c3ccccc3c2o1 | 17%

The compounds below were run on U-251 (assay: Antitumor activity against human U251 cells assessed as cell growth inhibition at 10 uM incubated for 48 hrs by sulforhodamine B assay). Settings: read-out: GI.
Format: functional

Structure (SMILES) | inhibition of growth at 10 µM
Oc1ccccc1-c1nc2c3ccccc3c3ccccc3c2o1 | 18%

Each compound was assayed on ACHN (assay: Antitumor activity against human ACHN cells assessed as cell growth inhibition at 10 uM incubated for 48 hrs by sulforhodamine B assay). Settings: read-out: GI.
Format: functional

Structure (SMILES) | inhibition of growth at 10 µM
Oc1ccccc1-c1nc2c3ccccc3c3ccccc3c2o1 | < 10%

These compounds were tested on OVCAR-8 (assay: Antitumor activity against human OVCAR-8 cells assessed as cell growth inhibition at 10 uM incubated for 48 hrs by sulforhodamine B assay). Settings: read-out: GI.
Format: functional

Structure (SMILES) | inhibition of growth at 10 µM
Oc1ccccc1-c1nc2c3ccccc3c3ccccc3c2o1 | 11%

What follows are compounds tested on M14 (assay: Antitumor activity against human M14 cells assessed as cell growth inhibition at 10 uM incubated for 48 hrs by sulforhodamine B assay). Settings: read-out: GI.
Format: functional

Structure (SMILES) | inhibition of growth at 10 µM
Oc1ccccc1-c1nc2c3ccccc3c3ccccc3c2o1 | < 10%

These compounds were tested on KM12 (assay: Antitumor activity against human KM12 cells assessed as cell growth inhibition at 10 uM incubated for 48 hrs by sulforhodamine B assay). Settings: read-out: GI.
Format: functional

Structure (SMILES) | inhibition of growth at 10 µM
Oc1ccccc1-c1nc2c3ccccc3c3ccccc3c2o1 | < 10%

Each compound was assayed on CCRF-CEM (assay: Antitumor activity against human CCRF-CEM cells assessed as cell growth inhibition at 10 uM incubated for 48 hrs by sulforhodamine B assay). Settings: read-out: GI.
Format: functional

Structure (SMILES) | inhibition of growth at 10 µM
Oc1ccccc1-c1nc2c3ccccc3c3ccccc3c2o1 | 17.9%

These compounds were tested on RXF 393 (assay: Antitumor activity against human RXF 393 cells assessed as cell growth inhibition at 10 uM incubated for 48 hrs by sulforhodamine B assay). Settings: read-out: GI.
Format: functional

Structure (SMILES) | inhibition of growth at 10 µM
Oc1ccccc1-c1nc2c3ccccc3c3ccccc3c2o1 | < 10%

What follows are compounds tested on SK-MEL-28 (assay: Antitumor activity against human SK-MEL-28 cells assessed as cell growth inhibition at 10 uM incubated for 48 hrs by sulforhodamine B assay). Settings: read-out: GI.
Format: functional

Structure (SMILES) | inhibition of growth at 10 µM
Oc1ccccc1-c1nc2c3ccccc3c3ccccc3c2o1 | < 10%
